Data taken from PMC6009964, “Designing, synthesis and bioactivities of 4-[3-(4-hydroxyphenyl)-5-aryl-4,5-dihydro-pyrazol-1-yl]benzenesulfonamides” (Journal of Enzyme Inhibition and Medicinal Chemistry, 2016).
Like-named read-outs stand apart in the source and are kept apart here. One block for each molecule: values may come before it.

Assays:
[1] = Cytotoxicity assay (MTT), HPC; conditions: human, normal pulp cells (HPC)
[2] = Cytotoxicity assay (MTT), HGF; conditions: human, normal gingival fibroblasts (HGF)
hCA XII = target: T1, hCA XII (Homo sapiens, UniProt O43570); experiment: Stopped-flow CO2 hydration carbonic anhydrase assay, hCA XII; type: biochemical; conditions: for times more potent than compound 1 towards hCA XII: ratio of Ki versus compound 1; for Ki: stopped-flow CO2 hydration, 15 min preincubation, pH 7.5; for hCA XII/hCA IX (selectivity ratio of Ki): times more selective towards hCA XII than hCA IX
T1 construct: made in house
T1 sequence (O43570 25-354): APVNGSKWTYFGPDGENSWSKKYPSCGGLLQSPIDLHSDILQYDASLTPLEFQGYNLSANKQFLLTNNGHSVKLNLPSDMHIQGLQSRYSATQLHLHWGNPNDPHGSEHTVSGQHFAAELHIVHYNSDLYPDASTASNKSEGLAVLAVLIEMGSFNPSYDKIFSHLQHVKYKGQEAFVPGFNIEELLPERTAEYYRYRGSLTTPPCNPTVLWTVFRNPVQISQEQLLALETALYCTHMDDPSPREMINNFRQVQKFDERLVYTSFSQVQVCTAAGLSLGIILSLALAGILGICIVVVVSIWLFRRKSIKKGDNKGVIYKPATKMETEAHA

hCA IX = target: T2, hCA IX (Homo sapiens, UniProt Q16790); experiment: Stopped-flow CO2 hydration carbonic anhydrase assay, hCA IX; type: biochemical; conditions: for times more potent than compound 1 towards hCA IX: ratio of Ki versus compound 1; for Ki: stopped-flow CO2 hydration, 15 min preincubation, pH 7.5
T2 construct: made in house

[3] = tested on: HSC-2 human oral squamous cell carcinoma cell line (tongue); experiment: Cytotoxicity assay (MTT), HSC-2; conditions: for CC50: Homo sapiens, HSC-2, 48 h, read-out: CC50 HSC-2; for SI (HSC-2): average CC50 of nonmalignant cells / CC50 towards HSC-2
[4] = tested on: Ca9–22 human oral squamous cell carcinoma cell line (gingiva); experiment: Cytotoxicity assay (MTT), Ca9-22; conditions: for TS (C/A): CC50 HGF / CC50 Ca9–22 (same tissue origin, gingiva); for CC50: Homo sapiens, Ca9-22, 48 h, read-out: CC50 Ca9–22 (A); for SI (Ca9–22): average CC50 of nonmalignant cells / CC50 towards Ca9–22
[5] = tested on: HSC-4 human oral squamous cell carcinoma cell line (tongue); experiment: Cytotoxicity assay (MTT), HSC-4; conditions: for CC50: Homo sapiens, HSC-4, 48 h, read-out: CC50 HSC-4; for SI (HSC-4): average CC50 of nonmalignant cells / CC50 towards HSC-4
[6] = tested on: HSC-3 human oral squamous cell carcinoma cell line (tongue); experiment: Cytotoxicity assay (MTT), HSC-3; conditions: for CC50: Homo sapiens, HSC-3, 48 h, read-out: CC50 HSC-3; for SI (HSC-3): average CC50 of nonmalignant cells / CC50 towards HSC-3
[7] = Cytotoxicity assay (MTT), normal oral cells (mean); conditions: human, normal oral cells HGF, HPLF, HPC (mean of the three)
[8] = Cytotoxicity assay (MTT), HPLF; conditions: human, normal periodontal ligament fibroblasts (HPLF)
[9] = tested on: Human oral squamous cell carcinoma cell lines (Ca9–22, HSC-2, HSC-3, HSC-4); experiment: Cytotoxicity assay (MTT), all four OSCC lines (mean, selectivity); conditions: for CC50: Homo sapiens; for TS (D/B): mean CC50 against normal cells / mean CC50 against cancer cells; for Mean SI: mean SI over four OSCC cell lines
[10] = read-out: CC50 Mean (B), human oral squamous cell carcinoma cell lines

SMILES: COc1ccc(C2CC(c3ccc(O)cc3)=NN2c2ccc(S(N)(=O)=O)cc2)cc1 (stereo not shown) [Compound 3, 4-[3-(4-Hydroxyphenyl)-5-(4-methoxyphenyl)-4,5-dihydro-pyrazol-1-yl]benzenesulfonamide]
CC50 at 48 h [1]: 167 µM
CC50 at 48 h [2]: 108 µM
times increased inhibition potential versus compound 2 towards hCA XII (hCA XII; ratio of Ki versus compound 2): 2.8
Ki (hCA XII): 0.0336 µM
hCA XII/hCA IX (selectivity ratio of Ki) (hCA XII): 2.8
times increased inhibition potential versus compound 2 towards hCA IX (hCA IX; ratio of Ki versus compound 2): 1.1
Ki (hCA IX): 0.0931 µM
CC50 [3]: 95.3 µM
SI (HSC-2) [3]: 1.1
TS (C/A) [4]: 2.0
CC50 [4]: 53.3 µM
SI (Ca9–22) [4]: 2.0
CC50 [5]: 88.3 µM
SI (HSC-4) [5]: 1.2
CC50 [6]: 71 µM
SI (HSC-3) [6]: 1.5
CC50 at 48 h [7]: 105 µM
CC50 at 48 h [8]: 39.3 µM
CC50 [9, 10]: 77 µM
TS (D/B) [9]: 1.4
Mean SI [9]: 1.4

SMILES: Cc1ccc(C2CC(c3ccc(O)cc3)=NN2c2ccc(S(N)(=O)=O)cc2)cc1 (stereo not shown) [Compound 2, 4-[3-(4-Hydroxyphenyl)-5-p-tolyl-4,5-dihydro-pyrazol-1-yl]benzenesulfonamide]
CC50 at 48 h [1]: 150 µM
CC50 at 48 h [2]: 99.3 µM
Ki (hCA XII): 0.095 µM
Ki (hCA IX): 0.1 µM
CC50 [3]: 95.3 µM
SI (HSC-2) [3]: 1.0
TS (C/A) [4]: 1.7
CC50 [4]: 57 µM
SI (Ca9–22) [4]: 1.7
CC50 [5]: 70.3 µM
SI (HSC-4) [5]: 1.4
CC50 [6]: 67.3 µM
SI (HSC-3) [6]: 1.4
CC50 at 48 h [7]: 97.2 µM
CC50 at 48 h [8]: 42.3 µM
CC50 [9, 10]: 72.5 µM
TS (D/B) [9]: 1.3
Mean SI [9]: 1.4

SMILES: NS(=O)(=O)c1ccc(N2N=C(c3ccc(O)cc3)CC2c2ccccc2)cc1 (stereo not shown) [Compound 1, 4-[3-(4-Hydroxyphenyl)-5-phenyl-4,5-dihydro-pyrazol-1-yl]benzenesulfonamide]
CC50 at 48 h [1]: 161 µM
CC50 at 48 h [2]: 133 µM
Ki (hCA XII): 0.0689 µM
hCA XII/hCA IX (selectivity ratio of Ki) (hCA XII): 13.4
Ki (hCA IX): 0.923 µM
CC50 [3]: 94.7 µM
SI (HSC-2) [3]: 1.2
TS (C/A) [4]: 1.6
CC50 [4]: 82 µM
SI (Ca9–22) [4]: 1.4
CC50 [5]: 83.7 µM
SI (HSC-4) [5]: 1.4
CC50 [6]: 81 µM
SI (HSC-3) [6]: 1.5
CC50 at 48 h [7]: 118 µM
CC50 at 48 h [8]: 59.7 µM
CC50 [9, 10]: 85.3 µM
TS (D/B) [9]: 1.4
Mean SI [9]: 1.4

SMILES: O=c1[nH]cc(F)c(=O)[nH]1 [Compound 5-FU, 5-Fluorouracil, reference compound]
CC50 at 48 h [1]: > 1000 µM
CC50 at 48 h [2]: > 1000 µM
CC50 [3]: 13 µM
SI (HSC-2) [3]: >76.9
TS (C/A) [4]: >34.5
CC50 [4]: 29 µM
SI (Ca9–22) [4]: >34.5
CC50 [5]: 13 µM
SI (HSC-4) [5]: >76.9
CC50 [6]: 16 µM
SI (HSC-3) [6]: >62.5
CC50 at 48 h [7]: > 1000 µM
CC50 at 48 h [8]: > 1000 µM
CC50 [9, 10]: 17.8 µM
CC50 ([9]; read-out: CC50 range towards cancer cell lines): 13 to 29 µM
TS (D/B) [9]: >56.2
Mean SI [9]: >62.7

Second part, led by results:

times more potent than compound 1 towards hCA XII (hCA XII): 7.5
Ki (hCA XII): 0.0092 µM
hCA XII/hCA IX (selectivity ratio of Ki) (hCA XII): 9.3
times more potent than compound 1 towards hCA IX (hCA IX): 10.8
Ki (hCA IX): 0.0857 µM
SMILES: NS(=O)(=O)c1ccc(N2N=C(c3ccc(O)cc3)CC2c2ccc(Cl)cc2Cl)cc1 (stereo not shown) [Compound 5, 4-[5-(2,4-Dichlorophenyl)-3-(4-hydroxyphenyl)-4,5-dihydro-pyrazol-1-yl]benzenesulfonamide]
CC50 at 48 h [1]: 131 µM
CC50 at 48 h [2]: 63 µM
CC50 [3]: 82.3 µM
SI (HSC-2) [3]: 0.9
TS (C/A) [4]: 1.4
CC50 [4]: 44.3 µM
SI (Ca9–22) [4]: 1.7
CC50 [5]: 54 µM
SI (HSC-4) [5]: 1.4
CC50 [6]: 76 µM
SI (HSC-3) [6]: 1.0
CC50 at 48 h [7]: 76.2 µM
CC50 at 48 h [8]: 34.7 µM
CC50 [9, 10]: 64.2 µM
TS (D/B) [9]: 1.2
Mean SI [9]: 1.3

times more potent than compound 1 towards hCA XII (hCA XII): 11.1
hCA XII/hCA IX (selectivity ratio of Ki) (hCA XII): 8.6
times more potent than compound 1 towards hCA IX (hCA IX): 17.3
SMILES: NS(=O)(=O)c1ccc(N2N=C(c3ccc(O)cc3)CC2c2cccs2)cc1 (stereo not shown) [Compound 9, 4-[3-(4-Hydroxyphenyl)-5-(thiophen-2-yl)-4,5-dihydro-pyrazol-1-yl]benzenesulfonamide]
CC50 at 48 h [1]: 173 µM
CC50 at 48 h [2]: 166 µM
CC50 [3]: 67 µM
SI (HSC-2) [3]: 1.8
TS (C/A) [4]: 1.7
CC50 [4]: 99.3 µM
SI (Ca9–22) [4]: 1.2
CC50 [5]: 93.7 µM
SI (HSC-4) [5]: 1.3
CC50 [6]: 87.3 µM
SI (HSC-3) [6]: 1.4
CC50 at 48 h [7]: 122 µM
CC50 at 48 h [8]: 26.7 µM
CC50 [9, 10]: 86.8 µM
TS (D/B) [9]: 1.4
Mean SI [9]: 1.4

Ki (hCA XII): 0.0076 µM
hCA XII/hCA IX (selectivity ratio of Ki) (hCA XII): 8.7
Ki (hCA IX): 0.0662 µM
SMILES: NS(=O)(=O)c1ccc(N2N=C(c3ccc(O)cc3)CC2c2ccc(Br)cc2)cc1 (stereo not shown) [Compound 7, 4-[5-(4-Bromophenyl)-3-(4-hydroxyphenyl)-4,5-dihydro-pyrazol-1-yl]benzenesulfonamide]
CC50 at 48 h [1]: 149 µM
CC50 at 48 h [2]: 52 µM
CC50 [3]: 85 µM
SI (HSC-2) [3]: 0.9
TS (C/A) [4]: 0.9
CC50 [4]: 55.7 µM
SI (Ca9–22) [4]: 1.4
CC50 [5]: 61.7 µM
SI (HSC-4) [5]: 1.3
CC50 [6]: 70.3 µM
SI (HSC-3) [6]: 1.1
CC50 at 48 h [7]: 78.6 µM
CC50 at 48 h [8]: 34.3 µM
CC50 [9, 10]: 68.2 µM
TS (D/B) [9]: 1.2
Mean SI [9]: 1.2

Ki (hCA XII): 0.0086 µM
hCA XII/hCA IX (selectivity ratio of Ki) (hCA XII): 9.8
Ki (hCA IX): 0.0841 µM
SMILES: NS(=O)(=O)c1ccc(N2N=C(c3ccc(O)cc3)CC2c2ccc(F)cc2)cc1 (stereo not shown) [Compound 6, 4-[5-(4-Fluorophenyl)-3-(4-hydroxyphenyl)-4,5-dihydro-pyrazol-1-yl]benzenesulfonamide]
CC50 at 48 h [1]: 155 µM
CC50 at 48 h [2]: 64.7 µM
CC50 [3]: 84.7 µM
SI (HSC-2) [3]: 1.0
TS (C/A) [4]: 1.0
CC50 [4]: 61.7 µM
SI (Ca9–22) [4]: 1.4
CC50 [5]: 62.3 µM
SI (HSC-4) [5]: 1.4
CC50 [6]: 78 µM
SI (HSC-3) [6]: 1.1
CC50 at 48 h [7]: 84.2 µM
CC50 at 48 h [8]: 33 µM
CC50 [9, 10]: 71.7 µM
TS (D/B) [9]: 1.2
Mean SI [9]: 1.2

Ki (hCA XII): 0.0388 µM
hCA XII/hCA IX (selectivity ratio of Ki) (hCA XII): 2.5
Ki (hCA IX): 0.0977 µM
SMILES: NS(=O)(=O)c1ccc(N2N=C(c3ccc(O)cc3)CC2c2ccc(Cl)cc2)cc1 (stereo not shown) [Compound 4, 4-[5-(4-Chlorophenyl)-3-(4-hydroxyphenyl)-4,5-dihydro-pyrazol-1-yl]benzenesulfonamide]
CC50 at 48 h [1]: 144 µM
CC50 at 48 h [2]: 89 µM
CC50 [3]: 81.7 µM
SI (HSC-2) [3]: 1.1
TS (C/A) [4]: 2.2
CC50 [4]: 39.7 µM
SI (Ca9–22) [4]: 2.2
CC50 [5]: 61 µM
SI (HSC-4) [5]: 1.4
CC50 [6]: 57 µM
SI (HSC-3) [6]: 1.5
CC50 at 48 h [7]: 87.6 µM
CC50 at 48 h [8]: 29.3 µM
CC50 [9, 10]: 59.8 µM
TS (D/B) [9]: 1.5
Mean SI [9]: 1.6

times more potent than compound 1 towards hCA XII (hCA XII): 9.2
Ki (hCA XII): 0.0075 µM
hCA XII/hCA IX (selectivity ratio of Ki) (hCA XII): 8.5
times more potent than compound 1 towards hCA IX (hCA IX): 14.5
Ki (hCA IX): 0.0637 µM
SMILES: NS(=O)(=O)c1ccc(N2N=C(c3ccc(O)cc3)CC2c2ccc([N+](=O)[O-])cc2)cc1 (stereo not shown) [Compound 8, 4-[3-(4-Hydroxyphenyl)-5-(4-nitrophenyl)-4,5-dihydro-pyrazol-1-yl]benzenesulfonamide]
CC50 at 48 h [1]: 127 µM
CC50 at 48 h [2]: 42 µM
CC50 [3]: 76 µM
SI (HSC-2) [3]: 0.9
TS (C/A) [4]: 1.1
CC50 [4]: 39.3 µM
SI (Ca9–22) [4]: 1.7
CC50 [5]: 63.7 µM
SI (HSC-4) [5]: 1.0
CC50 [6]: 63.3 µM
SI (HSC-3) [6]: 1.0
CC50 at 48 h [7]: 66.2 µM
CC50 at 48 h [8]: 30 µM
CC50 [9, 10]: 60.6 µM
TS (D/B) [9]: 1.1
Mean SI [9]: 1.2
